Source: patent US10301271B2, “Crystalline forms of tyrosine kinase inhibitors and their salts” (PURDUE PHARMA L.P., priority 2014, dated 2019)

Columns and labels:
[1] = system: mechanical allodynia in CCI rats; assay: Chronic constriction injury (CCI) model of neuropathic pain; assay type: in vivo, rat; conditions: for side effects observed in dosed CCI-rats (drowsiness, motor incoordination, other abnormality): single oral dose (gabapentin 100 mg/kg)
Source text: The CCI model is one of the most commonly used mono-neuropathic pain model firstly described in details by Bennett and Xie (Bennett G J, Xie Y K. Pain. 1988; 33(1):87-107). It mimics important clinical chronic pain symptoms such as mechanical allodynia and thermal hyperalgesia. Chronic constriction injury of the sciatic nerve was produced by tying four loose ligatures around the left sciatic nerve according to the method of Bennett and Xie. […] Calibrated von Frey filaments were used to determine the lowest mechanical (tactile) threshold required to evoke a brisk paw withdrawal reflex in the rat hindpaws. Rats were allowed to acclimatize in wire mesh cages for 15-20 min prior to von Frey testing. Assessment of paw withdrawal thresholds (PWTs) using von Frey filaments was undertaken prior to CCI-surgery (pre-surgery baseline on day 0). Before the drug dosing on day 14, the pre-dose baseline was recorded for each rat. […] Drug-naïve CCI-rats (n=4-6 per group) were used. The oral (PO) gavage vehicle was either 10% (w/v) Povidone K25 in water for PO dosing, or 18% (w/v) CrosPovidone in water for PO dosing, or 0.5% CMC-Na/0.1% Tween 80 in distilled water for PO dosing. The positive control gabapentin was dissolved in the vehicle and orally given at 100 mg/kg (by oral gavage). Test article was dissolved or suspended in the vehicle and orally given at 25, 50, 100 and 150 mg/kg. Each CCI-rat was administered a single oral dose of test article, gabapentin or vehicle control, 2 hours before assessment of PWT.

[2] = Rat pharmacokinetics (plasma and brain, LC-MS/MS); assay type: in vivo; conditions: PO, 100 mg/kg, mean
Method: Compound I was dosed to nonfasted male CD IGS rats (weighting 180-250 g, Charles River Laboratories) by single intravenous (IV, n=3/group) or oral gavage (PO, n=4/group, including control rat group for drug-free blood and brain collection) administration at a nominal dose levels of 3 mg/kg (IV) or 5 mg/kg (IV) and 10, 50, 100 mg/kg (PO) respectively. Compound was formulated in either DMSO/Solutol: HS 15/phosphate buffered saline, pH 7.4 (PBS) for both IV and PO dosing, or 10% (w/v) Povidone K12 in water for IV dosing or 10% (w/v) Povidone K25 in water for PO dosing, or 18% (w/v) CrosPovidone in water for PO dosing. An intravenous profile was obtained by taking serial or terminal blood samples at 3, 10, 30, 60, 120, 240, 360, 1440 min post dose. An oral profile was obtained by taking serial or terminal blood samples at 10, 30, 60, 120, 240, 360, 480, 1440 min post dose.
Plasma Sample Collection from Rats. Animals were sedated under general inhalant anesthesia (3% isoflurane) for blood collection by cardiac puncture. […]
Plasma and brain samples were subjected to quantitative analysis by LC-MS/MS using compound-specific mass transitions. […] The concentrations of the test compound in brain (ng/g brain tissue) and in plasma (ng/mL) as well as the ratio of the brain concentration and the plasma concentration at each time point were determined and reported.

TrkA (human full length) = biological target: T1, TrkA (human full length) (Homo sapiens, UniProt P04629); assay: PathHunter live whole cell functional assay, NGF stimulated TrkA activation; assay type: cell-based; conditions: U2OS cell background, mean of triplicate; read-out: cellular IC50, inhibition of NGF stimulated TrkA activation
T1 construct: expressed recombinantly on the intracellular C-terminus of TrkA (human full length); host or cells: U2OS
Source text: There are several methods to measure whole length TrkA activation stimulated by its natural ligand or agonist NGF in live cells. For example, the PathHunter Profiling services offered by DiscoveRx (Fremont, Calif.). The PathHunter technology is an adaptation of enzyme fragment complementation that provides a novel, generic functional cell-based assay format for detecting protein-protein interactions. In this cell-based assay approach, with U2OS cell background, a small peptide epitope (PK) is expressed recombinantly on the intracellular C-terminus of TrkA (human full length). This is co-expressed with a larger sequence, termed enzyme acceptor (EA) that is attached to a cytoplasmic protein SHC1 which will interact with TrkA intracellularly. NGF induced activation of TrkA receptor causes either homo- or hetero-dimerization of TrkA resulting in cross-phosphorylation. The SHC1-EA fusion protein then binds the phosphorylated TrkA receptor forcing complementation of the PK and EA fragment. This interaction generates an active beta-galactosidase enzyme, which is detected using a chemiluminescent substrate.

TrkB = TrkB (Homo sapiens, UniProt Q16620); assay: PathHunter live whole cell functional assay, BDNF stimulated TrkB activation; assay type: cell-based; conditions: triplicate
TrkC = TrkC (Homo sapiens, UniProt Q16288); assay: PathHunter live whole cell functional assay, NT3 stimulated TrkC activation; assay type: cell-based; conditions: triplicate
[3] = system: human pancreatic cancer cells AsPC-1, MIA PaCa-2, BxPC-3, Capan-1 and Panc-1; assay: Cell viability and proliferation assay (CellTiter-Glo), pancreatic cancer cells; assay type: cell-based; conditions: 24 h or 48 h or 96 h incubation
Method: (§1) To assess the chemosensitivity of tumor cells, cell viability is measured by CellTiter-Glo® Luminescent Cell Viability Assay (Promega; WI, USA) per the manufacturer's instruction. Briefly, […] to 7×10^5 cells/ml are cultured in sterile 96-well plates in the presence of increasing concentrations of the drugs (test article, 0 to 100 μM), or vehicle in RPMI medium. The plates are then incubated for 24 to 96 h, and then 100 μl of CellTiter-Glo reagent is added to lyse the cells. After a 10-min incubation at room temperature, the luminescence is recorded in a luminometer with an integration time of 1 s per well. The luminescence signals for the drug-treated cells are normalized by the luminescence signal obtained from vehicle-treated cells. As an alternative method to quantitate cell viability, the trypan blue exclusion dye method was used. Vehicle- or drug-treated cells were assayed by adding trypan blue solution (0.4% in phosphate-buffered saline [PBS]) to the culture medium. After 3 min, the number of dead cells that retained the dye is compared to the total number of cells to calculate cell viability. GraphPad Prism 5 software is used to calculate IC50 and plot effect-dose curve of drugs. Multiplate reader: EnVision 2104 (PerkinElmer). % of control variability=100*[(X(drug_treated)−L(baseline))/(H(vehicle_control)−L(baseline))]. […]

[4] = system: human liver cancer cells SK-HEP-1 and HepG2; assay: Cell viability and proliferation assay (CellTiter-Glo), liver cancer cells; assay type: cell-based; conditions: 24 h or 48 h or 96 h incubation
Method: as §1

[5] = system: human stomach cancer cells NCI-N87; assay: Cell viability and proliferation assay (CellTiter-Glo), stomach cancer cells; assay type: cell-based; conditions: 24 h or 48 h or 96 h incubation
Method: as §1

[6] = system: CFA-induced inflammatory pain; assay: Rat CFA-induced inflammatory pain model; assay type: in vivo; conditions: 50 μL of 1 mM s.c. into the paw 3 hours after CFA
Method: Hyperalgesia was induced by subcutaneously injecting 50 μL of CFA (Sigma-Aldrich, St. Louis, Mo., USA) into the plantar surface of the left hind paw of the rats using a 30-gauge hypodermic needle under sevoflurane anesthesia. The classical signs of inflammation, including edema and redness, for up the last day of tests were recorded. To assess the effect of test article on CFA-induced inflammatory pain, the rats were anesthetized with sevoflurane 3 hours after CFA injection and then injected 50 μL of either 1 mM test article (n=6) or Saline (n=4) subcutaneously (S.C.) into the same site as the CFA injection, using a 30-gauge hypodermic needle under sevoflurane anesthesia, according to published method (Ueda K., et al, J Pharmacol. Sci., 2010; 112(4):438-43). Paw withdrawal latencies (thermal hyperalgesia) are measured before and at […] 2, 4, and 7 days after CFA injection. Mechanical thresholds were also measured in the same way with either Formula 1 compound (n=6) or Saline (n=4) at similar different time points (for example, 1, 3 hour and 3 days). The noxious heat and mechanical thresholds were separately measured in each group of rats. The threshold was measured 3-5 times in each rat and then averaged. Stimulus interval was 5 min.

[7] = system: mechanical allodynia in SNL rats; assay: Spinal nerve ligation (SNL) mono-neuropathic pain model; assay type: in vivo, rat; conditions: oral administration, dose-dependent
Method: The surgical procedure will be performed according to the method firstly described by Kim and Chung (Kim S H, Chung J M. Pain. 1992; 50(3):355-63.). This procedure will result in tactile allodynia in the left hindpaw. […] The dose-response anti-allodynia effects of test compound: on day 14 after surgery, rats were treated with test article at one of four doses, vehicle or positive control by oral gavage, and PWT was determined by calibrated von Frey filaments at time points of 0 (right before the drug dosing, Pre-Dose Baseline), 0.5, 1, 2, 4 and 6 hr. The anti-allodynia effects of repeated administration of test article: Administration of test article was started on day 7 after surgery, once a day for 7 days. PWT was determined by calibrated von Frey filaments, 2 hour after test article dosing each day. After 7 days dosing, the measurement were continued, every other day without compound dosing for another 7 days. PWT was determined at the time points as given above.

[8] = system: human pancreatic cancer cells (PANC-1); assay: Subcutaneous xenograft tumor mouse model; assay type: in vivo; conditions: oral 150 mg/kg, Day 7 postdose, p<0.02
[9] = Accelerated stability tests by XRPD and Raman; assay type: physicochemical; conditions: over 1 week
Method: Approximately 2 mg of sample was gently compressed on the XRPD zero back ground single obliquely cut silica sample holder. The sample was then loaded into a D/MAX 2200 X-ray powder diffractometer (Rigaku) or a Philips X-Pert MPD diffractometer and analyzed using the following experimental conditions (Tube anode: Cu; Generator tension: 40 kV; Tube current: 40 mA; Wavelength alpha1: 1.54056 Å; Wavelength alpha2: 1.5444 Å; Start angle [2 theta]: 5; End angle [2 theta]: 50; and Continuous scan). For suspected novel forms a slightly slower scan speed was used over a range of […].
Samples were analyzed by a Nicolet Almega XR Dispersive Raman Microscope for its Raman spectrum using the following conditions (Exposure Time: 1.0 s; Acquisition No: 10; Pinhole Size: […]; Wavelength range: 2000˜300 cm^−1 (single grating); Laser: He—Ne 780 nm 100% power, Objective: 20×/0.40 or 50×/0.75 (magnifier/numerical aperture number)). Then the measured Raman spectra were corrected by baseline subtraction using the software OMNIC™ v7.3.

[10] = Solubility of the free acid; assay type: physicochemical

T1 sequence (P04629 33-796): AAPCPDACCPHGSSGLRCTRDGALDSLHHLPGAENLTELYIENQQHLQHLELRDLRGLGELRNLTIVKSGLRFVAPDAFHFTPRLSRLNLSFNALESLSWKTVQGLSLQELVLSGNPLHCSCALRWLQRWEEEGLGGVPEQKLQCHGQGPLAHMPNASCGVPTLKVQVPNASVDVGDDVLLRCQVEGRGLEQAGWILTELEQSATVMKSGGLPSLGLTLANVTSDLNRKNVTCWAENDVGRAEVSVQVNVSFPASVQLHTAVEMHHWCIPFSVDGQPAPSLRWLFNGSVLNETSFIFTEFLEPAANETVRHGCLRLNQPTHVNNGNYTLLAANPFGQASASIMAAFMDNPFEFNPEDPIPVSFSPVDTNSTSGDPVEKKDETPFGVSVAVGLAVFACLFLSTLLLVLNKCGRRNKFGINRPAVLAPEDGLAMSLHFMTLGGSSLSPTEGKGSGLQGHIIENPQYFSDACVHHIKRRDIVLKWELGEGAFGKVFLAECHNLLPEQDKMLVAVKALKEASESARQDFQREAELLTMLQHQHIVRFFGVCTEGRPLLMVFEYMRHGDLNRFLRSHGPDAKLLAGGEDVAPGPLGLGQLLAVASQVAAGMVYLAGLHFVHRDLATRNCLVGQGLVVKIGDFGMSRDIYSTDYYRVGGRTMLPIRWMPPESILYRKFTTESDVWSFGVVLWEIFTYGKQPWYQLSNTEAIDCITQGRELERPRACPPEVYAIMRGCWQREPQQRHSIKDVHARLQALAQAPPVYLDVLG
Chain of TrkC (Q16288 32-839): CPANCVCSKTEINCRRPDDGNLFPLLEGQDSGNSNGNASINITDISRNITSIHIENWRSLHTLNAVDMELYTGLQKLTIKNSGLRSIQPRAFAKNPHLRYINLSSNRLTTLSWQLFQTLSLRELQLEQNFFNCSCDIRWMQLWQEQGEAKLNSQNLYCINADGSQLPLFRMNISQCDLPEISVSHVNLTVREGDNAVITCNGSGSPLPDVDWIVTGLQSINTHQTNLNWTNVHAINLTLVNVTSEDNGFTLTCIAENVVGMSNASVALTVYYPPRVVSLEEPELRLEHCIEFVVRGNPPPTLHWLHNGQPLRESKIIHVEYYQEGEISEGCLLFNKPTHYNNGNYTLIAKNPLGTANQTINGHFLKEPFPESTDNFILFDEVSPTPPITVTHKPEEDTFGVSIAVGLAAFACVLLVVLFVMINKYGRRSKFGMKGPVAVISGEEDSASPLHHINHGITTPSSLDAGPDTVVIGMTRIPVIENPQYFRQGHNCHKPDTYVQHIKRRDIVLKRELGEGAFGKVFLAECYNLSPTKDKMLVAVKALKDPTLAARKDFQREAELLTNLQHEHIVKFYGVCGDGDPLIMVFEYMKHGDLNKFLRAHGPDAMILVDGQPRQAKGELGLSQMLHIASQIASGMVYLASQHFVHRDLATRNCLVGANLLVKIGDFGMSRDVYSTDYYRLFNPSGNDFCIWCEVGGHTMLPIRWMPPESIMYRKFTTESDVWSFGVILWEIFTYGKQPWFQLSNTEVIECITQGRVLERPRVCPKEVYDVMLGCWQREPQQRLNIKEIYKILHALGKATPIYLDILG
Chain of TrkB (Q16620 32-822): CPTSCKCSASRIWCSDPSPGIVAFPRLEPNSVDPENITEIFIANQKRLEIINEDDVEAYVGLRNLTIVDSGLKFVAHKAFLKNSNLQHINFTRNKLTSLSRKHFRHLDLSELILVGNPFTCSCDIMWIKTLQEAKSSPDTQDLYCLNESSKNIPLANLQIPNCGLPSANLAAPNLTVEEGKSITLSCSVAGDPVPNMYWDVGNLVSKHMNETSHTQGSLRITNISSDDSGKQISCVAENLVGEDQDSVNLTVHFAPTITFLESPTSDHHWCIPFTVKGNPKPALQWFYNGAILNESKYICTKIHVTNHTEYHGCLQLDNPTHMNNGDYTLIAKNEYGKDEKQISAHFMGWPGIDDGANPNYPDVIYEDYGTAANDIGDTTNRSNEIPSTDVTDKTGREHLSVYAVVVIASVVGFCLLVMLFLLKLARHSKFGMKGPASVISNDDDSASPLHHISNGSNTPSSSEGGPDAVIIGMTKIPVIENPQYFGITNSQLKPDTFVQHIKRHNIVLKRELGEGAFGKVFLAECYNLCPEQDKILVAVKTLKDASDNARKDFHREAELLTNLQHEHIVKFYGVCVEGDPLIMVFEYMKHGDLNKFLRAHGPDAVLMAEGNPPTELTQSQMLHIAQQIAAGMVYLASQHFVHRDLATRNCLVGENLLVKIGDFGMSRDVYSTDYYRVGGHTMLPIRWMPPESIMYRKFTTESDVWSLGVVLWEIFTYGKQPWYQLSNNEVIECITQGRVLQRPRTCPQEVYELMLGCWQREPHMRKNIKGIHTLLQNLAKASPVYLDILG

## NCC1(CC(=O)O)CCCCC1 [gabapentin, reference compound]
[1]
  side effects observed in dosed CCI-rats (drowsiness, motor incoordination, other abnormality): drowsiness or motor incoordination

## O=C([O-])c1ccc(Nc2cc(N3CCN(C4CCCCC4)CC3)c3noc4c3c2C(=O)c2ccccc2-4)cc1.[Na+] [Compound I, Sodium 4-((3-(4-cyclohexylpiperazin-1-yl)-6-oxo-6H-anthra[1,9-cd]isoxazol-5-yl)amino)benzoate]
[2]
  F: ~100%
TrkA (human full length)
  IC50: ~0.05 µM
TrkB
  IC50: > 10 µM
TrkC
  IC50: > 10 µM
[3]
  IC50: 2 to 5 µM
[4]
  IC50: 2 to 8 µM
[5]
  IC50: ~7 µM
[6]
  analgesic effect (thermal and mechanical thresholds, FIG. 1): efficacious in relieving the pain
[1]; single oral dose 25, 50, 100 and 150 mg/kg, 2 hours before assessment, dose-dependent
  reduction of mechanical allodynia (paw withdrawal threshold, von Frey, FIG. 2): significantly reduced mechanical allodynia
[1]
  side effects observed in dosed CCI-rats (drowsiness, motor incoordination, other abnormality): no such effect or other abnormality was observed
[7]
  reduction of mechanical allodynia (paw withdrawal threshold, von Frey): significantly reduced mechanical allodynia
[8]
  tumor volume reduction compared to vehicle treated group: more than 21%
[9]; 40° C./75% RH
  solid-state stability by XRPD and Raman: no instability
[9]; 80° C.
  solid-state stability by XRPD and Raman: no instability

## O=C(O)c1ccc(Nc2cc(N3CCN(C4CCCCC4)CC3)c3noc4c3c2C(=O)c2ccccc2-4)cc1 [Compound 701, 4-((3-(4-cyclohexylpiperazin-1-yl)-6-oxo-6H-anthra[1,9-cd]isoxazol-5-yl)amino)benzoic acid]
[10]
  solubility: limited solubility
